The values below come from the Kinase Knowledgebase extract (Sharma et al. 2016).

The target in this assay is EGFR (UniProt P00533).

SMILES strings stand for the structures.

Sequence of EGFR (P00533 whole entry, looked up): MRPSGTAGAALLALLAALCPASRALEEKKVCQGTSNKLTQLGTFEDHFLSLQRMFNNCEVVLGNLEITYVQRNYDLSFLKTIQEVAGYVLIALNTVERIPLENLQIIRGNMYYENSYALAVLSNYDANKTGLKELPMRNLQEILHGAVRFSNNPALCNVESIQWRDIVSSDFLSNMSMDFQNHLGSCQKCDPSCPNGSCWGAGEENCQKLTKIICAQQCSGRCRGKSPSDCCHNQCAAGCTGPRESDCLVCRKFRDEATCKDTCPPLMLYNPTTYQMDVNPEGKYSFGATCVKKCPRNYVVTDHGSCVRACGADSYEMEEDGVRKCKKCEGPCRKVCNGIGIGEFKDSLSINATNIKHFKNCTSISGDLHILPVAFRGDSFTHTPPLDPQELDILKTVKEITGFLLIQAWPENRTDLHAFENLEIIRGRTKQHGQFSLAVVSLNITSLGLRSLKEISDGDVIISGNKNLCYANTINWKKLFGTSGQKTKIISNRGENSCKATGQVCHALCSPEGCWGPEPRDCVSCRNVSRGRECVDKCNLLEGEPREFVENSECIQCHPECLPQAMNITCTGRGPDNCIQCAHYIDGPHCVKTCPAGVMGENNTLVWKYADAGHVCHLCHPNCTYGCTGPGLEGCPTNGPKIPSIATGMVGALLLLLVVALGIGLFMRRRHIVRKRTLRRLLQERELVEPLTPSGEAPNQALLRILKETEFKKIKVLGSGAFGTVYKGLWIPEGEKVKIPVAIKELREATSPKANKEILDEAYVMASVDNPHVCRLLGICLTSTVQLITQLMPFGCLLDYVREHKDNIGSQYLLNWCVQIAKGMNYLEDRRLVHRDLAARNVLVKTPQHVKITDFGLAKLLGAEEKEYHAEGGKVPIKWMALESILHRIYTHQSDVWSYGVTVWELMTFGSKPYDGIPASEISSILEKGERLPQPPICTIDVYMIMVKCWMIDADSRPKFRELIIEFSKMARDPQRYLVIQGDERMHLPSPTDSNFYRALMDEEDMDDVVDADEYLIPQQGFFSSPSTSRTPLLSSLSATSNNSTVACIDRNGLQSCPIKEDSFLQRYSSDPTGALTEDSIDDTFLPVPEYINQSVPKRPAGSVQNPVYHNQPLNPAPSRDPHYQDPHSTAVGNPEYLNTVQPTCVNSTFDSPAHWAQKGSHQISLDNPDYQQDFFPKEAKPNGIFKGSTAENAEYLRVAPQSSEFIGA

`COC(=O)c1cn2ncnc(Nc3ccc(C)c(NS(C)(=O)=O)c3)c2c1C`: the IC50 is 0.003 to 25 µM.
For the molecule `Cc1c(OCCCn2nccn2)cn2ncnc(Nc3cccc(Br)c3)c12`, the half-inhibitory concentration (IC50) lay in the range of 0.003 to 25 µM.
With `COC(=O)c1cn2ncnc(Nc3cccc(C#N)c3)c2c1C`, the IC50 was in the range of 0.003 to 25 µM.
`CCOC(=O)c1cn2ncnc(Nc3ccc(C)cc3)c2c1CC` gave an IC50 of 0.003 to 25 µM.
`COC(=O)CCc1cn2ncnc(C3C(=O)Nc4ccccc43)c2c1C` (centres undefined) displayed an IC50 of 0.003 to 25 µM.
As for `CCOC(=O)c1cn2ncnc(Nc3ccc4c(cnn4Cc4ccccc4)c3)c2c1C(C)C`, the IC50 lay within 0.003 to 25 µM.
Regarding `COCCCNC(=O)c1cn2ncnc(Nc3ccc(C)c(O)c3)c2c1C`, the IC50 lay in the range of 0.003 to 25 µM.
The molecule `CCOC(=O)c1cn2ncnc(Nc3ccc(O)cc3)c2c1CC` showed an IC50 of 0.003 to 25 µM.
Consider `COC(=O)c1cn2ncnc(Nc3ccc4c(c3)NCC4)c2c1C`, for which the IC50 lay within 0.003 to 25 µM.
Next, `Cc1cc2c(Nc3ccc(C)c(O)c3)ncnn2c1`: 0.003 to 25 µM; `CCOC(=O)c1cn2ncnc(C3C(=O)Nc4ccccc43)c2c1CC` (centres undefined): 0.003 to 25 µM; `CCOC(=O)c1c(CC)c2c(Nc3ccc4c(cnn4Cc4ccccc4)c3)ncnn2c1Br`: 0.003 to 25 µM.
Then `CCc1c(C(=O)O)cn2ncnc(Nc3ccc(OC)nc3)c12`, with 0.003 to 25 µM.
Next, `COC(=O)c1cn2ncnc(Nc3ccc(OC)c(OC)c3)c2c1C`: 0.003 to 25 µM.
`COC(=O)c1cn2ncnc(Nc3ccc(C)c(OC)c3)c2c1C`: the IC50 fell in the range of 0.003 to 25 µM.
Then `COC(=O)c1cn2ncnc(C3C(=O)Nc4ccc(S(=O)(=O)N(C)C)cc43)c2c1C` (centres undefined), with 0.003 to 25 µM; and `Cc1c(NC(=O)NCCN2CCOCC2)cn2ncnc(C3C(=O)Nc4ccccc43)c12` (centres undefined), with 0.003 to 25 µM; and `COC(=O)c1cn2ncnc(-c3c(O)[nH]c4cc(Br)ccc34)c2c1C`, with 0.003 to 25 µM.
Consider `CCc1c(CO)cn2ncnc(Nc3ccc4c(cnn4Cc4ccccc4)c3)c12`, for which the IC50 was in the range of 0.003 to 25 µM.
`COC(=O)c1cn2ncnc(Nc3ccccc3S(N)(=O)=O)c2c1C` came in with an IC50 of 0.003 to 25 µM.
The molecule `CCc1nc(C2C(=O)Nc3ccccc32)c2c(C)c(C(=O)NCCCN(C)C)cn2n1` (centres undefined) showed an IC50 of 0.003 to 25 µM.
In turn, `COc1cn2ncnc(C3C(=O)Nc4ccccc43)c2c1OC` (centres undefined) displayed an IC50 of 0.003 to 25 µM.
Regarding `COc1c(NC(=O)OCc2ccccc2)cn2ncnc(C3C(=O)Nc4ccccc43)c12` (centres undefined), the IC50 lay in the range of 0.003 to 25 µM.
Next, `CCCCNS(=O)(=O)c1cccc(Nc2ncnn3cc(C(=O)OC)c(C)c23)c1`: 0.003 to 25 µM.
In turn, `COC(=O)c1cn2ncnc(Nc3ccc4[nH]nnc4c3)c2c1C` showed an IC50 of 0.003 to 25 µM.
The molecule `COC(=O)c1cn2ncnc(Nc3ccc4cn[nH]c4c3)c2c1C` returned an IC50 of 0.003 to 25 µM.
Then `COC(=O)c1cn2ncnc(Nc3ccc(O)c(C(=O)O)c3)c2c1C`, with 0.003 to 25 µM; and `COC(=O)c1cn2ncnc(C3C(=O)Nc4ccccc43)c2c1C` (centres undefined), with 0.003 to 25 µM.
Regarding `CCCc1c(C(=O)OCC)cn2ncnc(Nc3ccc4c(cnn4Cc4ccccc4)c3)c12`, the IC50 lay within 0.003 to 25 µM.
On to `Cc1c(CCCN2CCOCC2)cn2ncnc(Nc3cccc(Br)c3)c12`, for which the IC50 lay in the range of 0.003 to 25 µM.
Consider `CCOC(=O)c1cn2ncnc(Nc3ccc(OC)nc3)c2c1OC`, for which the IC50 lay within 0.003 to 25 µM.
Next, `Cc1ccc(Nc2ncnn3cc(C(=O)O)c(C)c23)cc1O`: 0.003 to 25 µM.
`CCOC(=O)c1cn2ncnc(C3C(=O)Nc4ccccc43)c2c1OC` (centres undefined) gave an IC50 of 0.003 to 25 µM.
The molecule `Cc1c(C(=O)NCCCn2cncn2)cn2ncnc(C3C(=O)Nc4ccccc43)c12` (centres undefined) came in with an IC50 of 0.003 to 25 µM.
Next, `Cc1c(NC(=O)NCCCN2CCOCC2)cn2ncnc(C3C(=O)Nc4ccccc43)c12` (centres undefined): 0.003 to 25 µM.
Then `COC(=O)c1cn2ncnc(Nc3ccc4c(=O)[nH][nH]c(=O)c4c3)c2c1C`, with 0.003 to 25 µM; and `Cc1nc(C2C(=O)Nc3ccccc32)c2c(C)c(C(=O)NCCN3CCCC3)cn2n1` (centres undefined), with 0.003 to 25 µM.
With `CCOC(=O)c1cn2ncnc(Nc3ccc(C)c(O)c3)c2c1Cc1ccccc1`, the IC50 lay in the range of 0.003 to 25 µM.
As to `Cc1c(C(=O)NCCCN2CCN(C)CC2)cn2ncnc(C3C(=O)Nc4ccccc43)c12` (centres undefined), the IC50 fell in the range of 0.003 to 25 µM.
Then `CCCc1c(C(=O)NCCCN2CCOCC2)cn2ncnc(Nc3ccc(C)c(O)c3)c12`, with 0.003 to 25 µM; and `COc1cn2ncnc(Nc3ccc(C)c(O)c3)c2c1OC`, with 0.003 to 25 µM; and `COC(=O)c1cn2ncnc(Nc3cccc(S(=O)(=O)O)c3)c2c1C`, with 0.003 to 25 µM.
For the molecule `Cc1ccc(Nc2ncnn3cc(CO)c(C)c23)cc1O`, the IC50 lay in the range of 0.003 to 25 µM.
`COC(=O)c1cn2ncnc(Nc3ccc(C)c(N)c3)c2c1C` showed an IC50 of 0.003 to 25 µM.
Regarding `Cc1ccc(Nc2ncnn3cc(C(=O)NCCCS(C)(=O)=O)c(C)c23)cc1O`, the IC50 was 0.003 to 25 µM.
`CCOC(=O)c1cn2ncnc(NCCc3ccccn3)c2c1CC` gave an IC50 of 0.003 to 25 µM.
Consider `CCc1c(C(=O)OC)cn2ncnc(Nc3ccc4c(cnn4Cc4ccccc4)c3)c12`, for which the IC50 is 0.003 to 25 µM.
Then `CCOC(=O)c1cn2ncnc(Nc3ccc(F)c(Cl)c3)c2c1Cc1ccccc1`, with 0.003 to 25 µM; and `Cc1c(C(=O)NCCCN2CCOCC2)cn2ncnc(Nc3ccc(Br)c(O)c3)c12`, with 0.003 to 25 µM.
Next, `CCOC(=O)c1cn2ncnc(N3CCC4C=CC=CC4C3)c2c1CC` (centres undefined): 0.003 to 25 µM.
Consider `CCOC(=O)c1cn2ncnc(NCCc3ccccc3)c2c1CC`, for which the IC50 was in the range of 0.003 to 25 µM.
Take `Cc1nc(Nc2ccc(C)c(O)c2)c2c(C)c(C(N)=O)cn2n1`: the 50% inhibitory concentration (IC50) lay within 0.003 to 25 µM.
In turn, `CCc1c(C(=O)N(C)C)cn2ncnc(Nc3ccc4c(cnn4Cc4ccccc4)c3)c12` had an IC50 of 0.003 to 25 µM.
Molecule `COC(=O)c1cc2c(Nc3ccc4c(cnn4Cc4ccccc4)c3)ncnn2c1` displayed an IC50 of 0.003 to 25 µM.
`COC(=O)c1cn2ncnc(Nc3cccc(O)c3)c2c1C` gave an IC50 of 0.003 to 25 µM.
Regarding `CCOC(=O)c1cn2ncnc(C3C(=O)Nc4ccccc43)c2c1OCC` (centres undefined), the IC50 is 0.003 to 25 µM.
On to `Cc1c(C(=O)NCCCN2CCOCC2)cn2ncnc(C3C(=O)Nc4cc(F)ccc43)c12` (centres undefined), for which the IC50 lay within 0.003 to 25 µM.
For the molecule `COC(=O)c1cc2c(C3C(=O)Nc4ccccc43)ncnn2c1` (centres undefined), the IC50 lay in the range of 0.003 to 25 µM.
Turning to `COC(=O)c1cn2ncnc(C3C(=O)Nc4ccc(C(N)=O)cc43)c2c1C` (centres undefined), the IC50 is 0.003 to 25 µM.
The molecule `Cc1ccc(Nc2ncnn3cc(C(=O)NCCN4CCCC4)c(C)c23)cc1O` displayed an IC50 of 0.003 to 25 µM.
Next, `Cc1ccc(Nc2ncnn3cc(C(=O)NCCCN4CCN(C)CC4)c(C)c23)cc1O`: 0.003 to 25 µM; `CCc1c(C(=O)NCCCn2ccnc2)cn2ncnc(Nc3ccc4c(cnn4Cc4ccccc4)c3)c12`: 0.003 to 25 µM; `Cc1c(N(C)C)c(CO)n2ncnc(C3C(=O)Nc4ccccc43)c12` (centres undefined): 0.003 to 25 µM.
Take `CCOC(=O)c1cn2ncnc(Nc3ccc(C)c(O)c3)c2c1C(=O)OCC`: the IC50 was in the range of 0.003 to 25 µM.
In turn, `COC(=O)c1cn2ncnc(Nc3ccc(C)c(C)c3)c2c1C` registered an IC50 of 0.003 to 25 µM.
`CCOC(=O)c1cn2ncnc(N[C@H]3CC[C@H](O)CC3)c2c1CC` gave an IC50 of 0.003 to 25 µM.
Molecule `CCc1c(C(=O)NCCN2CCOCC2)cn2ncnc(Nc3ccc4c(cnn4Cc4ccccc4)c3)c12` returned an IC50 of 0.003 to 25 µM.
Then `CCOC(=O)c1cn2ncnc(NCC3(O)CCCCC3)c2c1CC`, with 0.003 to 25 µM; and `Cc1ccc(Nc2ncnn3cc(C)c(C)c23)cc1O`, with 0.003 to 25 µM; and `CCc1ccn2ncnc(Nc3ccc(C)c(O)c3)c12`, with 0.003 to 25 µM.
`CCOC(=O)c1cn2ncnc(Nc3ccc4c(cnn4Cc4ccccc4)c3)c2c1Cc1ccccc1` came in with an IC50 of 0.003 to 25 µM.
Molecule `CCOC(=O)c1cn2ncnc(Nc3ccc(C)c(NS(C)(=O)=O)c3)c2c1CC` showed an IC50 of 0.003 to 25 µM.
With `COC(=O)c1cn2ncnc(Nc3cc(NS(C)(=O)=O)ccc3C)c2c1C`, the IC50 fell in the range of 0.003 to 25 µM.
`COC(=O)c1cn2ncnc(Nc3ccc(C)cn3)c2c1C` displayed an IC50 of 0.003 to 25 µM.
In the case of `CCOC(=O)c1cn2ncnc(NCC3CCC(C#N)CC3)c2c1CC` (centres undefined), the IC50 lay within 0.003 to 25 µM.
On to `CCOC(=O)c1cn2ncnc(Nc3ccc(Oc4ccccc4)cc3)c2c1CC`, for which the IC50 fell in the range of 0.003 to 25 µM.
Next, `CCOC(=O)c1cn2ncnc(NCCCn3ccnc3)c2c1CC`: 0.003 to 25 µM; `COC(=O)c1cn2ncnc(C3C(=O)Nc4ccc(S(=O)(=O)NCCN5CCOCC5)cc43)c2c1C` (centres undefined): 0.003 to 25 µM.
Then `Cc1ccc(Nc2ncnn3cc(C(=O)N4CCN(C)CC4)c(C)c23)cc1O`, with 0.003 to 25 µM; and `COC(=O)c1cn2ncnc(Cl)c2c1C`, with 0.003 to 25 µM.
Take `CCOC(=O)c1cn2ncnc(Nc3ccc(F)c(Cl)c3)c2c1CC`: the IC50 lay within 0.003 to 25 µM.
In the case of `COC(=O)c1cn2ncnc(Nc3ccc(NS(=O)(=O)c4ccccc4)c(O)c3)c2c1C`, the 50% inhibitory concentration (IC50) lay within 0.003 to 25 µM.
Consider `COC(=O)c1cn2ncnc(Nc3cccc(O)c3C)c2c1C`, for which the IC50 is 0.003 to 25 µM.
On to `COC(=O)c1cn2ncnc(Nc3ccc4c(cnn4Cc4ccccc4)c3)c2c1C`, for which the IC50 lay in the range of 0.003 to 25 µM.
`COC(=O)c1cc2c(Nc3ccc(F)c(Cl)c3)ncnn2c1`: the IC50 lay within 0.003 to 25 µM.
For `COc1c(C(=O)NCCN2CCCC2)cn2ncnc(Nc3ccc(Br)cc3F)c12`, the IC50 is 0.003 to 25 µM.
The molecule `COC(=O)c1cn2ncnc(C3C(=O)Nc4cc(C#N)ccc43)c2c1C` (centres undefined) had an IC50 of 0.003 to 25 µM.
`CCCCc1ccc(Nc2ncnn3cc(C(=O)OC)c(C)c23)cc1O` had an IC50 of 0.003 to 25 µM.
Molecule `COCCNC(=O)c1cn2ncnc(C3C(=O)Nc4ccccc43)c2c1C` (centres undefined) showed a 50% inhibitory concentration (IC50) of 0.003 to 25 µM.
The molecule `CCOC(=O)c1cn2ncnc(Nc3ccc(C)c(O)c3)c2c1OC` showed an IC50 of 0.003 to 25 µM.
Molecule `CCOC(=O)c1cn2ncnc(N[C@H](C)c3ccccc3)c2c1CC` returned a 50% inhibitory concentration (IC50) of 0.003 to 25 µM.
Consider `CCc1c(C(=O)N(CCCn2ccnc2)c2ccccn2)cn2ncnc(Nc3ccc4c(cnn4Cc4ccccc4)c3)c12`, for which the IC50 fell in the range of 0.003 to 25 µM.
`COC(=O)c1cn2ncnc(Nc3ccc(OC)cc3)c2c1C`: the IC50 was 0.003 to 25 µM.
As to `COC(=O)c1cn2ncnc(C3C(=O)Nc4ccc(C#N)cc43)c2c1C` (centres undefined), the IC50 lay in the range of 0.003 to 25 µM.
For `Fc1cc(Cl)ccc1Nc1ncnn2cccc12`, the IC50 is 0.003 to 25 µM.
For `COC(=O)c1cn2ncnc(N(C)c3ccc(C)c(O)c3)c2c1C`, the IC50 was 0.003 to 25 µM.
Next, `COc1c(N)cn2ncnc(C3C(=O)Nc4ccccc43)c12` (centres undefined): 0.003 to 25 µM; `Cc1ccc(Nc2nc(N(C)C)nn3cccc23)cc1O`: 0.003 to 25 µM.
The molecule `COC(=O)c1cn2ncnc(C3C(=O)Nc4ncccc43)c2c1C` (centres undefined) yielded an IC50 of 0.003 to 25 µM.
